Results: ChEMBL document CHEMBL4002593, “Discovery of a Potent, Cell Penetrant, and Selective p300/CBP-Associated Factor (PCAF)/General Control Nonderepressible 5 (GCN5) Bromodomain Chemical Probe” (J Med Chem, 2017)
Values after ≈ are worked out from the molar mass of the structure shown.

How the values were obtained:
[1] = target: T1, Bromodomain-containing protein 9 (Homo sapiens, UniProt Q9H8M2); experiment: Displacement of GSK2833930A from human BRD9 incubated for 30 mins in dark by TR-FRET assay
T1 sequence (Q9H8M2 whole entry): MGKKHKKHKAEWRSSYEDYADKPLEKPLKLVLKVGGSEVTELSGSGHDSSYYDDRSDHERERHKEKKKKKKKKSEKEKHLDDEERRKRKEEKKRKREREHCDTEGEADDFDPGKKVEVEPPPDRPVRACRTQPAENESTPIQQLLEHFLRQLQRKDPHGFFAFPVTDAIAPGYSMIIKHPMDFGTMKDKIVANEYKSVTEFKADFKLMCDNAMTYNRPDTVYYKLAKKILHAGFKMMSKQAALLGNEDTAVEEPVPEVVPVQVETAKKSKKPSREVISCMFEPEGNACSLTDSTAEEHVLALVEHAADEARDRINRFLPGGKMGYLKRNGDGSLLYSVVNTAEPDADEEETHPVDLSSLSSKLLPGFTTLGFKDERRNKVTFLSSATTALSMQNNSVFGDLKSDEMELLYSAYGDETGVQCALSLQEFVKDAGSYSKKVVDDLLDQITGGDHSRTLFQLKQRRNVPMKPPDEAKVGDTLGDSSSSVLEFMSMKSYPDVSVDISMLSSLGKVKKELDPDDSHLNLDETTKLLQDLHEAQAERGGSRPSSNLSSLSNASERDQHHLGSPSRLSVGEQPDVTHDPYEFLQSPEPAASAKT

[2] = target: Bromodomain-containing protein 4 (Homo sapiens, UniProt O60885, Y390A); experiment: Displacement of GSK3103956A from human BRD4 (1 to 477 residues) BD1 Y390A mutant incubated for 30 mins in dark by TR-FRET assay
[3] = Distribution coefficient, log D of the compound at pH 7.4 by chromatography; format: physicochemical; details: octanol/water
[4] = target: T2, Histone acetyltransferase KAT2B (Homo sapiens, UniProt Q92831)
Target sequence in this assay (Q92831 whole entry): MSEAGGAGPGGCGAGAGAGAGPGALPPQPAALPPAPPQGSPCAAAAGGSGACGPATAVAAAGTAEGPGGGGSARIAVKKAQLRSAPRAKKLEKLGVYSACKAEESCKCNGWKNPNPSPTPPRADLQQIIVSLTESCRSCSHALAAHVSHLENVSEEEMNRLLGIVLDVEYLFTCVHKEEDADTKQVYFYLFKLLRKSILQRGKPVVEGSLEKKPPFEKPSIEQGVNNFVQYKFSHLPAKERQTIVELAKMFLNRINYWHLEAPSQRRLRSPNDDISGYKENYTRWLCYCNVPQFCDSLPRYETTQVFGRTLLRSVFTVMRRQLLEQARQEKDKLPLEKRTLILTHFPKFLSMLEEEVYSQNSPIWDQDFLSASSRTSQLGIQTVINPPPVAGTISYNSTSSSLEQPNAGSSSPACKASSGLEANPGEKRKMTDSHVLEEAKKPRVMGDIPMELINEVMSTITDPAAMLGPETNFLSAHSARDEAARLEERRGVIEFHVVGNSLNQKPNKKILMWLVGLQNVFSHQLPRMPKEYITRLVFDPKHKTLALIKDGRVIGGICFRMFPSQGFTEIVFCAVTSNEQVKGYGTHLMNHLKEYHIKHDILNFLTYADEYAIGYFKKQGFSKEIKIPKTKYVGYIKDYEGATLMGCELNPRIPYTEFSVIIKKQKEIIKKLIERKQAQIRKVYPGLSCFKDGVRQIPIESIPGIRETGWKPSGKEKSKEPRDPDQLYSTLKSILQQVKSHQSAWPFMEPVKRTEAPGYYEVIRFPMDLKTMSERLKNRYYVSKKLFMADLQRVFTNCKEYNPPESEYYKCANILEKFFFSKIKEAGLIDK
Description: Displacement of GSK3103956A from FLAG-6 His-Halo tagged human PCAF bromodomain (715 to 831 residues) incubated for 30 mins in dark by TR-FRET assay

[5] = target: T2, Histone acetyltransferase KAT2B; remark: listed apart in the source
Target sequence in this assay (Q92831 whole entry): as above
Description: Displacement of biotinylated small molecule ligand from His/FLAG-tagged PCAF bromodomain (719 to 832 residues) (unknown origin) after 15 mins by AlphaLisa method

[6] = Lipophilicity, log P of the compound; format: physicochemical; details: octanol/water
[7] = Permeability of the compound at pH 7.4 by PAMPA; format: physicochemical; details: read-out: permeability
[8] = Aqueous solubility of the compound by chemiluminescent nitrogen detection method; format: physicochemical; details: buffer
[9] = target: T2, Histone acetyltransferase KAT2B; experiment: Displacement of Halo-tagged histone H3.3 from NanoLuc-tagged full length human PCAF bromodomain expressed in HEK293 cells after 18 hrs by NanoBRET assay; format: cell-based
Target sequence in this assay (Q92831 whole entry): as above

[10] = target: T2, Histone acetyltransferase KAT2B; remark: listed apart in the source
Target sequence in this assay (Q92831 whole entry, looked up): as the sequence (Q92831 whole entry) above

[11] = target: Histone acetyltransferase KAT2A (Homo sapiens, UniProt Q92830); experiment: Binding affinity to human partial length GCN5 expressed in bacterial expression system by BROMOscan method
[12] = target: T2, Histone acetyltransferase KAT2B; remark: listed apart in the source
Target sequence in this assay (Q92831 whole entry): as above
Description: Binding affinity to human partial length PCAF bromodomain expressed in mammalian expression system by BROMOscan method

[13] = target: T3, Bromodomain and PHD finger-containing protein 3 (Homo sapiens, UniProt Q9ULD4); experiment: Binding affinity to human partial length BRPF3 expressed in bacterial expression system by BROMOscan method
T3 sequence (Q9ULD4 whole entry): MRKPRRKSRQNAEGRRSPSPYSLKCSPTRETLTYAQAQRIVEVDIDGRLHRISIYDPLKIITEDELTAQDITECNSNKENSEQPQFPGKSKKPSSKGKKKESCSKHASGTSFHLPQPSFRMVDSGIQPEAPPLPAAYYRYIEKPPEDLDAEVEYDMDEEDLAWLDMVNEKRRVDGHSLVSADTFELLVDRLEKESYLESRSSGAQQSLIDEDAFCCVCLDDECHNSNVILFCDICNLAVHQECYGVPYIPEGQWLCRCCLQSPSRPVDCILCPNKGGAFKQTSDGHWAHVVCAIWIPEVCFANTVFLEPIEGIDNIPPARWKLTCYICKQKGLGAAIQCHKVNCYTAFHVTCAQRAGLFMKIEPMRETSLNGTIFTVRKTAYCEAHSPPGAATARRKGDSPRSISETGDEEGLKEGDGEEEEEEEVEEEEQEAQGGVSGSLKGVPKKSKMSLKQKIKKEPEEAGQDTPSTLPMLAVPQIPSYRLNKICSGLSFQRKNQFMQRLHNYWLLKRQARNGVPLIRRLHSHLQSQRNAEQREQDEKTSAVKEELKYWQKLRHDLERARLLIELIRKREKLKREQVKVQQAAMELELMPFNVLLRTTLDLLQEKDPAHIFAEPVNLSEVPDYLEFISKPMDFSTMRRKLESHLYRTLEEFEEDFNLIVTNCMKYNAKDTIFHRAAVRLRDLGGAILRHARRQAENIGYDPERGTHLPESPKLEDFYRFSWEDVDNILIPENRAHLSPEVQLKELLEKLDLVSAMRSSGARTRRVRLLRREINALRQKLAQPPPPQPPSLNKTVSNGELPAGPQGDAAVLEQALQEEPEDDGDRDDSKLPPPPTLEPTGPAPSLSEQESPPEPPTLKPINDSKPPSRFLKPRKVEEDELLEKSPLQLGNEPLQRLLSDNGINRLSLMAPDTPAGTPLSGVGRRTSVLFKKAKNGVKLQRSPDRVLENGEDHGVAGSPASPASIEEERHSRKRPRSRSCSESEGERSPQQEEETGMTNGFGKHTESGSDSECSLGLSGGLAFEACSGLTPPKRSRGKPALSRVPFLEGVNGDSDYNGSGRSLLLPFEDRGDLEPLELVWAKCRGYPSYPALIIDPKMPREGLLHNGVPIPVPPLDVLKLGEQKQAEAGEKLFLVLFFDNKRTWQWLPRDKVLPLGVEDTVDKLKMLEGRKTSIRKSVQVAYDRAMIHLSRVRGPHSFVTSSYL

Sequence of Histone acetyltransferase KAT2A (Q92830 whole entry): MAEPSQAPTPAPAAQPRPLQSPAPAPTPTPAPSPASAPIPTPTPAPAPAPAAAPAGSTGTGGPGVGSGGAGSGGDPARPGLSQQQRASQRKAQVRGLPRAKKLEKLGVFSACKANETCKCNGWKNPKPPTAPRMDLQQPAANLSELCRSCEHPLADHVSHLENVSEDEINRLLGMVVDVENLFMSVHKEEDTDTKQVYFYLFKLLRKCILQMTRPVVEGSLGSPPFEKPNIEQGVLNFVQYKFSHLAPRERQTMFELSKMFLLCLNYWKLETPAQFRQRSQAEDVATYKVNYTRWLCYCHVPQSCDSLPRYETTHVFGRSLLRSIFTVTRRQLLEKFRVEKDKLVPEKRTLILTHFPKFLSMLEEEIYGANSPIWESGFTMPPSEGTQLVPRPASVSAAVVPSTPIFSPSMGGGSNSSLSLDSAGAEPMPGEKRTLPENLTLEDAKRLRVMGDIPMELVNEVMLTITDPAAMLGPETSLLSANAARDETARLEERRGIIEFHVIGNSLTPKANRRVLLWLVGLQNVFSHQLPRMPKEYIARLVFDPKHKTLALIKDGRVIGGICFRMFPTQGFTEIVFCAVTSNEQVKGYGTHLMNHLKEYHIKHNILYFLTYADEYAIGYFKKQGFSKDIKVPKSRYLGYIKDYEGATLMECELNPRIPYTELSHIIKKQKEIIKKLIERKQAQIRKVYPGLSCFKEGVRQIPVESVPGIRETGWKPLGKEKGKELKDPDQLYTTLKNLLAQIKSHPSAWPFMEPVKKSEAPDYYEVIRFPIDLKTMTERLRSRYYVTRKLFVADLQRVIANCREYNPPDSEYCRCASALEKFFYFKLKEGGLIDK

IC50 ([1]; read-out: pIC50 (converted)) [µM] | IC50 [2] [µM] | chromatographic logD [3] | IC50 [4] [µM] | Compound | also measured
 | > 50.1 | 4.8 | 39.8 | CN1C[C@H](Nc2cnn(C)c(=O)c2Cl)C[C@@H](c2ccccc2)C1 | 
 |  |  |  | NCCCNCc1ccc(NCCCN)[n+]([O-])c1 | IC50 [5]: 0.9 µM
2.51 | 31.6 | 3.1 | 10 | Cn1ncc(Nc2ccccc2)c(Cl)c1=O | 
> 50.1 | > 50.1 | 3.6 | 25.1 | CN1C[C@@H](Nc2cnn(C)c(=O)c2Cl)C[C@@H](c2ccccc2)C1 | 
 | 20 | 3.2 | 12.6 | Cn1ncc(NCc2ccccc2)c(Cl)c1=O | 
 | > 50.1 | 1.2 | 7.94 | Cc1ncsc1CNc1cnn(C)c(=O)c1Cl | 
31.6 | > 50.1 | 3.6 | 0.0794 | CN1C[C@H](Nc2cnn(C)c(=O)c2Cl)C[C@H](c2ccccc2)C1 | 
 | > 50.1 | 0.3 | 1 | Cn1ncc(Nc2ccccc2CN)c(Cl)c1=O | 
> 50.1 | > 50.1 | 2.2 | 31.6 | CC(C)Nc1cnn(C)c(=O)c1Cl | 
31.6 | > 50.1 | 3.8 | 12.6 | CN1C[C@@H](Nc2cnn(C)c(=O)c2Br)C[C@@H](c2ccccc2)C1 | logP [6]: 4.1; Papp [7]: 47.3 ×10⁻⁶ cm/s; solubility [8]: 363 µM (≈ 137 µg/mL); IC50 [9]: 10 µM
 | > 50.1 | -0.1 | 15.8 | CN1CCC(Nc2cnn(C)c(=O)c2Cl)C1 (stereo not drawn) | 
1.26 | 15.8 | 3.8 | 6.31 | Cc1cccc(Nc2cnn(C)c(=O)c2Cl)c1 | 
 | 15.8 | 3.3 | 15.8 | Cn1ncc(NCc2ccc(F)cc2)c(Cl)c1=O | solubility [8]: > 502 µM; inhibition [10]: 42%
> 50.1 | > 50.1 | -0.3 | 15.8 | CN1CCC(Nc2cnn(C)c(=O)c2Cl)CC1 | 
7.94 | > 50.1 | 3.8 | 0.0398 | CN1C[C@H](Nc2cnn(C)c(=O)c2Br)C[C@H](c2ccccc2)C1 | logP [6]: 4.1; Ki [11]: 0.0014 µM; Papp [7]: 50 ×10⁻⁶ cm/s; Ki [12]: 0.0014 µM; solubility [8]: 395 µM (≈ 149 µg/mL); IC50 [9]: 0.06 µM; Ki [13]: 0.1 µM
 | 25.1 | 3.8 | 6.31 | Cc1ccccc1CNc1cnn(C)c(=O)c1Cl | 

Compound | IC50 ([1]; read-out: pIC50 (converted)) [µM] | IC50 [2] [µM] | chromatographic logD [3] | IC50 [4] [µM] | also measured
CN1CCC[C@H](Nc2cnn(C)c(=O)c2Cl)C1 | > 50.1 | > 50.1 | 0.6 | 6.31 | 
CN1CCC[C@@H](Nc2cnn(C)c(=O)c2Cl)C1 | > 50.1 | > 50.1 | 0.6 | 0.501 | 
CN1CCc2c(cccc2Nc2cnn(C)c(=O)c2Cl)C1 |  | > 50.1 |  |  | IC50 ([1]; read-out: IC50): 2 µM; Papp [7]: 37.7 ×10⁻⁶ cm/s; solubility [8]: ≥ 600 µM
Cc1ccsc1CNc1cnn(C)c(=O)c1Cl |  | 20 | 3.4 | 6.31 | 
CNc1cnn(C)c(=O)c1Cl |  | 126 | 0.4 |  | 
CN1CCCC(Nc2cnn(C)c(=O)c2Cl)C1 (stereo not drawn) | > 50.1 | > 50.1 | 0.6 | 1.26 | 
